The source made the active and inactive calls. The calls are words filed in the database; no cut-off is given here.

We go through 44 compounds from ChEMBL document CHEMBL5375960, “Design and Synthesis of Novel Cereblon Binders for Use in Targeted Protein Degradation” (J Med Chem, 2023).

Assay [1] addresses Protein cereblon/DNA damage-binding protein 1 (Homo sapiens, UniProt Q96SW2). Nature of the assay: Displacement of Cy5-labeled tracer CC0782985 from 6His-tagged CRBN (1 to 442 residues)/DDB1 (1 to 1140 residues) (unknown origin) incubated for 20 mins by TR-FRET assay. The format is protein assay. (In TR-FRET formats the signal depends on donor and acceptor labels being close together.)

Assay [2] has as its target Zinc finger protein Aiolos (Homo sapiens, UniProt Q9UKT9). Nature of the assay: Induction of ePL tagged Aiolos degradation in human DF15 cells incubated for 4 hrs by luminescence based assay. In kind it is cell-based.
Assay [3] has as its target T1, Eukaryotic peptide chain release factor GTP-binding subunit ERF3A (Homo sapiens, UniProt P15170). As to the kind of experiment: Induction of ePL tagged GSPT1 degradation in human DF15 cells assessed as remaining activity incubated for 20 hrs by luminescence based assay relative to control. The format is cell-based. Set-up: concentration or dose not given beside the values.

For assay [4], the target named is T1, Eukaryotic peptide chain release factor GTP-binding subunit ERF3A. As to the kind of experiment: Induction of ePL tagged GSPT1 degradation in human DF15 cells incubated for 20 hrs by luminescence based assay. The format is cell-based.
Assay [5] shares this target. Nature of the assay: Induction of ePL tagged GSPT1 degradation in human DF15 cells incubated for 20 hrs by luminescence based assay relative to control. The format is cell-based.
Assay [6] concerns the target T2, Androgen receptor (Homo sapiens) (UniProt P10275).
T2 sequence (whole entry): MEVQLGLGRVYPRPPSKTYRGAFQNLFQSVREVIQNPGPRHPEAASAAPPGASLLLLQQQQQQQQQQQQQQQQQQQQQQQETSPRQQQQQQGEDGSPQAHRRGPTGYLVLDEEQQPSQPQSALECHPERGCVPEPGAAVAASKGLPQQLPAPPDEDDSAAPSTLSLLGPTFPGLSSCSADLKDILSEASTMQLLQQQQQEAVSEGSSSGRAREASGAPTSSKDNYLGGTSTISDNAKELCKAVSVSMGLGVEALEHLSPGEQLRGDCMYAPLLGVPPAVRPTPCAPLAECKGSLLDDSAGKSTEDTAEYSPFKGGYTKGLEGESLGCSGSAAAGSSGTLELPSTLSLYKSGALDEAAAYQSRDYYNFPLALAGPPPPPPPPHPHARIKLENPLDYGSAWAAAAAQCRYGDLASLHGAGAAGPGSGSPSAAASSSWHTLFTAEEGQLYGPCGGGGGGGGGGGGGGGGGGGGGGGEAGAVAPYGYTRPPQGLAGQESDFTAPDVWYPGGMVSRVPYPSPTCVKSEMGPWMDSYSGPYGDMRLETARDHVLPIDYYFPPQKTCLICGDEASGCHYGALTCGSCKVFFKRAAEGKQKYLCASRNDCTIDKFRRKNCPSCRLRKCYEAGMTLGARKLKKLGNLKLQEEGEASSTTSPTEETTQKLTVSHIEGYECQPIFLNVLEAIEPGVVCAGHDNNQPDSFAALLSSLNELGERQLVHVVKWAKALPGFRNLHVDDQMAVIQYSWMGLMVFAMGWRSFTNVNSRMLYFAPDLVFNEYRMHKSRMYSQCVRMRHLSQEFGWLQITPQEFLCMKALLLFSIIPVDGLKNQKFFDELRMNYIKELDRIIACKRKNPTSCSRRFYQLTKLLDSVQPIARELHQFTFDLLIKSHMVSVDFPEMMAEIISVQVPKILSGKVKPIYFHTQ
Nature of the assay: Induction of androgen receptor degradation in human VCaP cells incubated for 24 hrs by ELISA. The format is cell-based. (An ELISA detects its analyte on a solid surface through an enzyme-linked reagent.)

For `Cn1nc(N2CCC(=O)NC2=O)c2ccccc21`, the IC50 – broadly, the concentration that gives 50% inhibition – in assay [1] was 6.7 µM. The EC50 (usually the concentration at which the effect is half-maximal) in assay [2] is more than 10 µM.

Regarding `Nc1ccc2c(c1)ncn2C1CCC(=O)NC1=O` (stereo unspecified), the concentration for half-maximal inhibition (IC50) in assay [1] came out at 0.59 µM. For the same compound, the EC50 in assay [2] is 0.312 µM.

In assay [1], `Nc1ccc(NC2CCC(=O)NC2=O)cc1` (stereo unspecified) displayed an IC50 of 12.4 µM. The compound further returned an EC50 in assay [2] of more than 10 µM.

In turn, `Cc1ccc(NC(=O)NCc2cccc(C(=O)NC3CCC(=O)NC3=O)c2)cc1Cl` (stereo unspecified) showed an IC50 in assay [1] of 3.8 µM. Further, the Activity in assay [3] is 3.1%. The EC50 in assay [4] was 0.021 µM; in assay [2], more than 10 µM.

With `Nc1ccc(C(=O)NC2CCC(=O)NC2=O)cc1` (stereo unspecified), the IC50 in assay [1] was determined as 5.5 µM. Also, in assay [2], it took 0.607 µM to reach a half-maximal effect (EC50).

`Nc1cccc2c1ncn2C1CCC(=O)NC1=O` (stereo unspecified) registered an IC50 in assay [1] of 0.81 µM. For the same compound, the EC50 in assay [2] is more than 10 µM.

In assay [2], `O=C1CCC(n2ncc3ccccc32)C(=O)N1` (stereo unspecified) showed an EC50 of more than 10 µM.

Compound `Nc1cccc2c1C(=O)N(C1CCC(=O)NC1=O)C2=O` (stereo unspecified) [POMALIDOMIDE] had a concentration for a half-maximal effect (EC50) in assay [2] of 0.02 µM.

As to `Nc1cccc(NC2CCC(=O)NC2=O)c1` (stereo unspecified), the IC50 in assay [1] turned out to be 3.7 µM. Further, the EC50 in assay [2] is more than 10 µM.

`Cc1ccc(NC(=O)NCc2ccc(C(=O)NC3CCC(=O)NC3=O)cc2)cc1Cl` (stereo unspecified): the IC50 in assay [1] was determined as 3.4 µM. The Activity in assay [3] was found to be 33.7%. Moreover, the EC50 in assay [4] is 0.1 µM; in assay [2] it was more than 10 µM.

Turning to `O=C1CCC(n2cnc3ccc(OCc4ccc(CN5CCOCC5)cc4)cc32)C(=O)N1` (stereo unspecified), the IC50 in assay [1] amounted to 0.28 µM. The Activity in assay [3] is 99%. In addition, the EC50 in assay [4] is more than 10 µM; in assay [2] it was 0.07 µM.

In the case of `Cn1nc(C2CCC(=O)NC2=O)c2ccc(N)cc21` (stereo unspecified), in assay [1], the IC50 was found to be 0.1 µM. Also, the 50% effective concentration (EC50) in assay [2] was more than 10 µM.

In assay [1], `O=C1CCC(c2ccc(OCc3ccc(CN4CCOCC4)cc3)cc2)C(=O)N1` (stereo unspecified) registered an IC50 of 1.9 µM. For the same compound, the Activity in assay [3] is 97.1%. Moreover, the EC50 in assay [4] and in assay [2] was more than 10 µM throughout.

Compound `Cc1ccc(NC(=O)NCc2ccc(N3CCC(=O)NC3=O)cc2)cc1Cl` returned an IC50 in assay [1] of 4.7 µM. Also, the Activity in assay [3] amounted to 93.8%. For the same compound, the EC50 in assay [4] and in assay [2] was more than 10 µM each time.

As to `Nc1cccc(C(=O)NC2CCC(=O)NC2=O)c1` (stereo unspecified), the IC50 in assay [1] is 25.8 µM. In addition, the EC50 in assay [2] was more than 10 µM.

In turn, `Cn1nc(N2CCC(=O)NC2=O)c2ccc(N)cc21` came in with an IC50 in assay [1] of 2.3 µM. Besides, the EC50 in assay [2] was more than 10 µM.

For `Cc1ccc(NC(=O)NCc2ccccc2C(=O)NC2CCC(=O)NC2=O)cc1Cl` (stereo unspecified), the IC50 in assay [1] was 10.3 µM. The Activity in assay [3] amounted to 88.4%. Further, the EC50 in assay [4] and in assay [2] was more than 10 µM in each case.

As for `Cc1ccc(NC(=O)NCc2ccc(C3CCC(=O)NC3=O)cc2)cc1Cl` (stereo unspecified), the IC50 in assay [1] is 0.29 µM. In addition, the Activity was 73.4% in assay [3] and 26% in assay [5]. Moreover, the EC50 was 0.07 µM in assay [4] and more than 10 µM in assay [2].

As for `Nc1cccc(N[C@@H]2CCC(=O)NC2=O)c1`, in assay [1], the IC50 is 2.9 µM. In addition, the EC50 in assay [2] is more than 10 µM.

For `Nc1ccc(N2CCC(=O)NC2=O)cc1`, the outcome in assay [6] was inactive. The same compound gave an IC50 in assay [1] of 23.6 µM. In addition, the EC50 in assay [2] is more than 10 µM.

With `O=C1CCC(Oc2ccccc2)C(=O)N1` (stereo unspecified), the IC50 in assay [1] was 7 µM. In assay [2], this compound showed an EC50 of more than 10 µM.

The compound `O=C1CCC(Nc2ccccc2)C(=O)N1` (stereo unspecified) registered an IC50 in assay [1] of 5.6 µM. Further, the EC50 in assay [2] was more than 10 µM.

On to `Cc1ccc(NC(=O)NCc2cccc(C3CCC(=O)NC3=O)c2)cc1Cl` (stereo unspecified), for which, in assay [1], the IC50 amounted to 1.5 µM. The Activity in assay [3] was determined as 92.8%. Further, the EC50 in assay [4] and in assay [2] was more than 10 µM in each case.

With `Cc1ccc(NC(=O)NCc2ccc3c(c2)CN(C2CCC(=O)NC2=O)C3=O)cc1Cl` (stereo unspecified), the IC50 in assay [1] is 0.03 µM. Also, in assay [3], the Activity was determined as 3.9%. The half-maximal effective concentration (EC50) in assay [4] was 0.0003 µM; in assay [2] it was 0.005 µM.

As to `COc1cccc(C2CCC(=O)NC2=O)c1` (stereo unspecified), the IC50 in assay [1] is 1.7 µM. This compound also gave an EC50 in assay [2] of more than 10 µM.

`Nc1cccc2c1cnn2C1CCC(=O)NC1=O` (stereo unspecified) showed a half-maximal inhibitory concentration (IC50) in assay [1] of 0.34 µM. Also, in assay [2], the EC50 is more than 10 µM.

In the case of `Cc1ccc(NC(=O)NCc2cccc(N3CCC(=O)NC3=O)c2)cc1Cl`, the IC50 in assay [1] stood at 8.6 µM. Further, the Activity in assay [3] was found to be 95.2%. Besides, the half-maximal effective concentration (EC50) in assay [4] and in assay [2] was more than 10 µM each time.

For `O=C1CCN(c2cccc(OCc3ccc(CN4CCOCC4)cc3)c2)C(=O)N1`, the IC50 in assay [1] is 3.3 µM. For the same compound, the Activity in assay [3] is 94%. The EC50 in assay [4] and in assay [2] was more than 10 µM each time.

Compound `Cn1nc(C2CCC(=O)NC2=O)c2cccc(N)c21` (stereo unspecified) came in with an IC50 in assay [1] of 0.19 µM. The compound further displayed an EC50 in assay [2] of more than 10 µM.

`Nc1ccc2ncn(C3CCC(=O)NC3=O)c2c1` (stereo unspecified): the IC50 in assay [1] worked out at 0.74 µM. Moreover, in assay [2], the EC50 worked out at 0.142 µM.

Consider `Cn1nc(N2CCC(=O)NC2=O)c2cccc(N)c21`, for which the IC50 in assay [1] is 12.2 µM. The EC50 in assay [2] was more than 10 µM.

In assay [1], `O=C1CCC(c2cccc(OCc3ccc(CN4CCOCC4)cc3)c2)C(=O)N1` (stereo unspecified) came in with an IC50 of 0.58 µM. Besides, the Activity in assay [3] was 96.6%. The EC50 in assay [4] and in assay [2] was more than 10 µM in each case.

In turn, `Cn1nc(C2CCC(=O)NC2=O)c2ccccc21` (stereo unspecified) had an IC50 in assay [1] of 0.15 µM. The same compound returned an EC50 in assay [2] of more than 10 µM.

In assay [1], `COc1ccc(C2CCC(=O)NC2=O)cc1` (stereo unspecified) had a half-inhibitory concentration (IC50) of 2.2 µM. Further, in assay [2], the EC50 was more than 10 µM.

On to `Nc1cccc(N2CCC(=O)NC2=O)c1`, for which the result in assay [6] was inactive. Besides, in assay [1], the IC50 was determined as 11.7 µM. In assay [2], this compound had an EC50 of more than 10 µM.

Consider `O=C1CCN(c2ccccc2)C(=O)N1`, for which the EC50 in assay [2] was more than 10 µM.

In assay [1], `O=C1CCC(NC(=O)c2ccccc2)C(=O)N1` (stereo unspecified) showed an IC50 of 11.1 µM. The compound further displayed an EC50 in assay [2] of more than 10 µM.

With `Nc1cccc(C2CCC(=O)NC2=O)c1` (stereo unspecified), in assay [6], the result was Active. The compound further registered an IC50 in assay [1] of 2.3 µM. In assay [2], this compound displayed an EC50 of more than 10 µM.

Take `O=c1ccn(-c2ccccc2)c(=O)[nH]1`: in assay [1], the IC50 is more than 100 µM. In addition, in assay [2], the EC50 is more than 10 µM.

Consider `O=C1CCC(c2ccccc2)C(=O)N1` (stereo unspecified), for which the EC50 in assay [2] is more than 10 µM.

Regarding `Nc1ccc(C2CCC(=O)NC2=O)cc1` (stereo unspecified), the outcome in assay [6] was Active. The compound further had an IC50 in assay [1] of 1.2 µM. The concentration for a half-maximal effect (EC50) in assay [2] was more than 10 µM.

On to `Nc1cccc(N[C@H]2CCC(=O)NC2=O)c1`, for which the IC50 in assay [1] stood at 1.4 µM. This compound also showed an EC50 in assay [2] of more than 10 µM.

In turn, `O=C1CCN(c2ccc(OCc3ccc(CN4CCOCC4)cc3)cc2)C(=O)N1` returned an IC50 in assay [1] of 8 µM. In addition, the Activity in assay [3] was 97.1%. Also, the EC50 in assay [4] and in assay [2] was more than 10 µM in each case.

For the compound `O=C1CC[C@H](N2Cc3c(OCc4ccc(CN5CCOCC5)cc4)cccc3C2=O)C(=O)N1` [IBERDOMIDE], the Activity in assay [3] was determined as 88.8%. In addition, the EC50 in assay [4] was more than 10 µM; in assay [2], 0.001 µM.
